Experimental data as given in patent US8629147B2, “Heterocyclic compounds useful in the treatment of neoplastic diseases, inflammatory disorders and immunomodulatory disorders” (ChemBridge Corporation, priority 2005, dated 2014).

Columns and labels:
[1] = tested on: MCF7 human breast tumor cells; assay: CellTiter-Glo luminescent cell viability assay, MCF7; type: cell-based; conditions: 48 hours, 20 to 0.1 μM
Procedure: (§1) Cell viability of either MCF7 human breast tumor cells (American Type Culture Collection catalog #HTB 22) or NCI-H929 human plasmacytoma cells (ATCC catalog #CRL-9068) was assessed using the Promega CellTiter-Glo luminescent cell viability assay according to manufacturer's instructions. In brief, cells were plated at 10,000 cells per well in a clear bottom white 96 well microtiter plate (Costar catalog #3604) in 100 μL of cell growth medium. Compounds were then added to the cells to give final concentrations of compound ranging from 20 to 0.1 μM. Cells were incubated 48 hours after which 100 μL per well of celltiter-glo reagent was added and luminescence was measured in a BMG polarstar plate luminometer. A plot of counts per minute versus log concentration of compounds was fitted to a sigmoidal dose response curve using Graphpad Prism software to generate IC50 values.

[2] = target: T1, human IGF1R kinase domain (Homo sapiens, UniProt P08069); assay: IGF1R tyrosine phosphorylation inhibition, Alphascreen phosphotyrosine PT66 assay; type: biochemical; conditions: recombinant kinase domain, 1 hour co-incubation, 20 to 0.1 μM
T1 construct: human IGF1R precursor protein corresponding to the amino acids positions 974 through 1293; 6xHis; made in house; host or cells: SF9 insect cells, recombinant baculovirus (Bac-to-Bac System)
Procedure: Inhibition of IGF1R tyrosine phosphorylation was measured in the Alphascreen phosphotyrosine PT66 assay kit (Perkin Elmer Life sciences, Catalog number 6760602) according to the manufacturer's instructions. As a source of enzymatically active IGF1r kinase for this assay, SF9 insect cells were infected with recombinant baculovirus (Bac-to-Bac System, Invitrogen, Carlsbad, Calif.) encoding 6×His-tagged kinase domain portion of human IGF1R precursor protein corresponding to the amino acids positions 974 through 1293 (Abbott et al., 1992, J. Biol. Chem. 267:10759-10763) and recombinant kinase protein was purified to homogeneity using two-step chromatography on immobilized Ni^2+ resin (Ni-NTA) and ion-exchange Q-Sepharose column. Biotinylated poly glu-tyr 4:1 (CIS bio-international, catalog number 61GT0BLA) was used for the kinase substrate. Compounds were serially diluted to give a concentration range from 20 to 0.1 μM and co-incubated with IGF1r kinase, biotinylated peptide substrate and alphascreen components for 1 hour and then read in a Perkin-Elmer alphafusion plate reader. A plot of counts per minute versus log concentration of compounds was fitted to a sigmoidal dose response curve using Graphpad Prism software to generate IC50 values (see FIG. 1 for an example).

[3] = tested on: NCI-H929 human plasmacytoma cells; assay: CellTiter-Glo luminescent cell viability assay, NCI-H929; type: cell-based; conditions: 48 hours, 20 to 0.1 μM
Procedure: as §1

T1 sequence (P08069 974-1293): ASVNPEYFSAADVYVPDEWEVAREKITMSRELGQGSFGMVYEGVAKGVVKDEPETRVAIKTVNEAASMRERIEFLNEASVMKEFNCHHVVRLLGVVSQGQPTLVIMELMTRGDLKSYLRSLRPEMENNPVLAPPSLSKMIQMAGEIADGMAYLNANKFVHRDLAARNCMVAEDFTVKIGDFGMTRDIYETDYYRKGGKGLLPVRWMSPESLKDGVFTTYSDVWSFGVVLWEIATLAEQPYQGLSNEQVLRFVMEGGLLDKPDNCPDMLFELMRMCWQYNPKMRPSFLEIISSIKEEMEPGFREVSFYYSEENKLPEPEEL

| Structure (SMILES) | IC50 [1] | IC50 [2] | IC50 [3] |
| --- | --- | --- | --- |
| CC1CCN(CCc2ccc(NC(=O)c3cn(-c4cccc(-c5ccc(N(C)C)cc5)n4)nc3N)cc2)CC1 | 5 to 10 µM | ≤ 5 µM | 5 to 10 µM |
| CN1CCN(Cc2cccc(NC(=O)c3cc(N)n(-c4ncc5c(n4)-c4ccccc4CC5)n3)c2)CC1 | 10 to 15 µM | ≤ 5 µM | 10 to 15 µM |
| CCN(CC)CCOc1ccc(NC(=O)c2cn(-c3ncc4c(n3)-c3ccccc3OC4)nc2N)cc1 |  | ≤ 5 µM | > 25 µM |
| COc1ccc2c(c1)OCc1cnc(-n3cc(C(=O)NCCCc4ccncc4)c(N)n3)nc1-2 | 10 to 15 µM | 10 to 15 µM | 10 to 15 µM |
| CN1CCN(CCc2ccc(NC(=O)c3cn(-c4nccc(-c5ccc(N(C)C)cc5)n4)nc3N)cc2)CC1 | 10 to 15 µM | ≤ 5 µM | 5 to 10 µM |
| COc1ccc2c(c1)CCc1cnc(-n3cc(C(=O)NCCc4c[nH]c5ccccc45)c(N)n3)nc1-2 | 5 to 10 µM | ≤ 5 µM | > 25 µM |
| COc1ccc2c(c1)CCc1cnc(-n3cc(C(=O)NCc4nc5ccccc5[nH]4)c(N)n3)nc1-2 | 5 to 10 µM | ≤ 5 µM | 5 to 10 µM |
| COc1ccc2c(c1)CCc1cnc(-n3cc(C(=O)Nc4ccc(/C=C/CN5CCN(C)CC5)cc4)c(N)n3)nc1-2 | 10 to 15 µM | ≤ 5 µM | 5 to 10 µM |
| COc1ccc2c(c1)CCc1cnc(-n3cc(C(=O)NC4CCN(CCCc5ccncc5)CC4)c(N)n3)nc1-2 | 5 to 10 µM | ≤ 5 µM | ≤ 5 µM |
| CN1CCN(CCc2ccc(NC(=O)c3cn(-c4ncc5c(n4)-c4cc(Cl)ccc4OC5)nc3N)cc2)CC1 | 10 to 15 µM | ≤ 5 µM | 5 to 10 µM |
| COc1ccc2c(c1)CCc1cnc(-n3cc(C(=O)Nc4ccc(CCN5CCN6CCC[C@H]6C5)cc4)c(N)n3)nc1-2 | 10 to 15 µM | ≤ 5 µM | 5 to 10 µM |
| CN1CCN(c2ccc(NC(=O)c3ccc4nc(-c5ccc6ccccc6c5O)[nH]c4c3)cc2)CC1 | 10 to 15 µM | ≤ 5 µM | 5 to 10 µM |
| COc1ccc2c(c1)CCc1cnc(-n3cc(-c4nc5cc(N6CCN(C)CC6)ccc5[nH]4)c(N)n3)nc1-2 | 10 to 15 µM | ≤ 5 µM | 5 to 10 µM |
| CN1CCN(CCc2ccc(NC(=O)c3ccc4nc(-c5nc6ccccc6[nH]5)[nH]c4c3)cc2)CC1 | > 25 µM | ≤ 5 µM | 5 to 10 µM |
| CN1CCN(c2ccc3nc(-c4nc5ccccc5[nH]4)[nH]c3c2)CC1 | 10 to 15 µM | ≤ 5 µM | 10 to 15 µM |
| CN1CCN(c2ccc3nc(-c4cc(-c5ccc(N(C)C)cc5)ccc4O)[nH]c3c2)CC1 | 10 to 15 µM | ≤ 5 µM | 5 to 10 µM |
| COc1ncccc1-c1ccc(O)c(-c2nc3ccc(C(=O)Nc4ccc(CCN5CCN(C)CC5)cc4)cc3[nH]2)c1 | 5 to 10 µM | ≤ 5 µM | ≤ 5 µM |
| CN1CCN(c2ccc3nc(-c4cc(-c5ccccc5)ccc4O)[nH]c3c2)CC1 | > 25 µM | ≤ 5 µM | 10 to 15 µM |
| CN1CCN(c2ccc3nc(-c4cc(-c5cccnc5)ccc4O)[nH]c3c2)CC1 | 10 to 15 µM | ≤ 5 µM | 10 to 15 µM |
| CN1CCN(c2ccc3nc(-c4ccc(OCc5ccccc5)cc4O)[nH]c3c2)CC1 | 10 to 15 µM | ≤ 5 µM | > 25 µM |
| CN1CCN(c2ccc3nc(-c4ccc(O)c(O)c4O)[nH]c3c2)CC1 | 10 to 15 µM | ≤ 5 µM | 10 to 15 µM |
| CCN1CCC2(CCN(c3cc(C)c4nc(-c5c(NC[C@@H](O)c6cccc(Cl)c6)cc[nH]c5=O)[nH]c4c3)C2)C1 (some centres unmarked) | 5 to 10 µM | ≤ 5 µM | ≤ 5 µM |
| Cc1cc(N2CCN(C)CC2)cc2nc(-c3nc4cc(N5CCN(C)CC5)cc(C)c4[nH]3)[nH]c12 | > 25 µM | ≤ 5 µM | 10 to 15 µM |
| CCN1CCC2(CCN(CCc3ccc(NC(=O)c4ccc5[nH]c(-c6cc(-c7cccnc7OC)ccc6O)nc5c4)cc3)C2)C1 (centres unmarked) | 10 to 15 µM | ≤ 5 µM | ≤ 5 µM |
| COc1ncccc1-c1ccc(O)c(-c2nc3ccc(C(=O)Nc4ccc(CCN5CCCC6(CCCN(C)C6)C5)cc4)cc3[nH]2)c1 (centres unmarked) | 5 to 10 µM | ≤ 5 µM | ≤ 5 µM |
| COc1ncccc1-c1ccc2[nH]c(-c3nc4cc(N5CCN(C)CC5)ccc4[nH]3)nc2c1 | 10 to 15 µM | ≤ 5 µM | ≤ 5 µM |
| COc1ncccc1-c1ccc2[nH]c(-c3nc4cc(C(=O)Nc5ccc(CCN6CCN(C)CC6)cc5)ccc4[nH]3)nc2c1 | 10 to 15 µM | ≤ 5 µM | ≤ 5 µM |
| CCN1CCC2(CCN(CCc3ccc(NC(=O)c4ccc5[nH]c(-c6cc(-c7cccnc7O)ccc6O)nc5c4)cc3)C2)C1 (centres unmarked) [drawing 1786] | 5 to 10 µM | ≤ 5 µM | ≤ 5 µM |
| CN1CCCC2(CCCN(CCc3ccc(NC(=O)c4ccc5nc(-c6cc(-c7cccnc7O)ccc6O)[nH]c5c4)cc3)C2)C1 (centres unmarked) [drawing 1788] | 10 to 15 µM | ≤ 5 µM | ≤ 5 µM |
